According to publication PMC12284294 (iScience, 2025):

Experiments:
[1] = biological target: T1, FPR1 (Homo sapiens, UniProt P21462); format: cell-based
T1 construct: expressed in transfected cells; host or cells: HEK293T
T1 sequence (P21462 1-350): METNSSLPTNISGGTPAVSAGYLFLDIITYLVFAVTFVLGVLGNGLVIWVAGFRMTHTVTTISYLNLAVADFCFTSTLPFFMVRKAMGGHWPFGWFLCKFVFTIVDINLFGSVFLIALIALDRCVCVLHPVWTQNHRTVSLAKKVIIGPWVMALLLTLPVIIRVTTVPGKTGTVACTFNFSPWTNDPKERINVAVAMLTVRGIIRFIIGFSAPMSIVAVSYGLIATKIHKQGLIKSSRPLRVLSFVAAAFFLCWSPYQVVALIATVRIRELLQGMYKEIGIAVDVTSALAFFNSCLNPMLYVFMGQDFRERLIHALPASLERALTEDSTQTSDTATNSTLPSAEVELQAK

[2] = test system: human polymorphonuclear granulocytes (PMN; neutrophils); format: cell-based
[3] = test system: FPR1, FPR2, FPR3, PMN; format: cell-based, human

“GCLIGAEYVNNSYEC [Omicron Variant SCoV2_52, 15mer of Omicron spike pool library]” was tested, and the “significant FPR1 activators (group of the spike peptide pool screening)” value [1] was “significant FPR1 activators”, the “FPR1 calcium activation in library screening” value ([1]; individual peptides 10 μM, n = 3) was “activator” and the “significant PMN activators (group of the spike peptide pool screening)” value ([2]; SARS-CoV-2 omicron B.1.1.529 spike pool peptides, 10 µM, PMN, n=6) was “significant PMN activators”. The “neutrophil calcium mobilization in library screening” value ([2]; individual peptides 10 μM, n = 6) was “activator” and the “Match with activator (region): Receptor” value [3] was “PMN + FPR1”.
